From patent US12097192B2 (Corcept Therapeutics Incorporated, priority 2019, dated 2024)

What was measured:
[1] = test system: Cushing syndrome patients; conditions: patients treated with either mifepristone or metyrapone; cited from earlier work
[2] = test system: Cushing syndrome patients; assay: Adverse events with other medical therapies for Cushing syndrome; format: in vivo, human; conditions: one patient treated previously with mifepristone

In the case of CC(C)(C(=O)c1cccnc1)c1cccnc1 [metyrapone], the drug induced hypokalemia [1] is listed as “commonly seen adverse event”.
For CC#C[C@]1(O)CC[C@H]2[C@@H]3CCC4=CC(=O)CCC4=C3[C@@H](c3ccc(N(C)C)cc3)C[C@@]21C [mifepristone], the “adverse event on previous therapy” value [2] was “developed endometrial hypertrophy”.
